# Measurements as given in publication PMC10239507, “Development of allosteric and selective CDK2 inhibitors for contraception with negative cooperativity to cyclin binding” (Nature Communications, 2023).
# Entries after “also recorded” stand apart in the source; their conditions may differ.
# How the values were obtained:
# [1] = molecular target: T1, CDK2 (C118A C177S A93C R157C) (Homo sapiens, UniProt P24941, A93C/C118A/C177S/R157C); experiment: Intramolecular FRET assay of CDK2 activation loop position; assay type: binding
# T1 construct: made in house; cyclin A: BL21(DE3)pLysS
# CDK/cyclin complexes = experiment: Commercial CDK/cyclin kinase activity panel (Reaction Biology); assay type: biochemical; conditions: concentration well above its KD
# human CDK2 (1-298) = human CDK2 (1-298) (Homo sapiens, UniProt P24941); experiment: Isothermal titration calorimetry (ITC)
# GST-tagged CDK2 = molecular target: T2, GST-tagged CDK2 (Homo sapiens, UniProt P24941); experiment: Surface plasmon resonance (SPR), CDK2; assay type: binding
# T2 construct: The gene encoding human CDK2 (1-298) was custom-synthesized; made in house; host or cells: E. coli BL21 DE3 RIPL
Molecule,Kd [1],inhibition of CDK/cyclin complexes (CDK/cyclin complexes),Kd (human CDK2 (1-298)),"T∆S (human CDK2 (1-298); ITC, 25 °C)","n (binding stoichiometry) (human CDK2 (1-298); ITC, 25 °C)","∆H (human CDK2 (1-298); ITC, 25 °C)",fold slower dissociation rate than the allosteric inhibitors (GST-tagged CDK2)
"O=C(O)c1cc(C(F)(F)F)ccc1NCCc1c[nH]c2cc(Cl)ccc12 [Compound 4, 2-((2-(6-Chloro-1H-indol-3-yl)ethyl)amino)−5-(trifluoromethyl)benzoic Acid]",280 nM,poorly inhibits; also recorded: does not substantially inhibit any CDK/cyclin complex,31 nM,4.8 kcal/mol,1.39,-5.5 kcal/mol,
cyclin: Bovine cyclin A (171-432 with a C-terminal 6His tag),,,,,,,≥ 10 fold
